We go through 1 compound from article PMC4747952, “Development of TASP0410457 (TASP457), a novel dihydroquinolinone derivative as a PET radioligand for central histamine H3 receptors” (EJNMMI Research, 2016).

This test concerns H3Rs. Briefly: In vitro autoradiography, monkey brain sections. The class given is binding, rhesus monkey. Conditions: in the presence of 10 μM of unlabelled TASP0410457 or ciproxifan. The procedure: Twenty-micrometer-thick sagittal rat and monkey brain sections were incubated in an autoradiography buffer containing 5 nM [^11C]TASP0410457 as described in Additional file 1: Supplemental methods. The binding was also performed in the presence of 10 μM of unlabeled TASP0410457, thioperamide, or ciproxifan for the rat sections and 10 μM of TASP0410457 or ciproxifan for the monkey sections to assess the specific radioligand binding.
(25:75) at a flow rate of 1 mL/min. A representative chromatogram of [11C]TASP0390136 is shown in […]
Twenty-micrometer-thick sagittal rat brain sections were pre-incubated with autoradiography buffer (50 mM Tris containing 120 mM NaCl, 2 mM KCl, 1 mM MgCl2, and 1 mM CaCl2, pH7.4) for 30 min, then incubated in the autoradiography buffer containing 5 nM [11C]TASP0410457 at 25°C for 1 h. The sections were washed two times with ice-cold autoradiography buffer for 5 min, rinsed with ice-cold water for 10 s, and then quickly dried. The radioactivity retained on the sections was determined using a BAS imaging plate and the BAS5000 system (GE Healthcare, Piscataway, NJ). For a blocking study, brain slices were reacted with [11C]TASP0410457 in the presence of […] of TASP0410457, thioperamide, or ciproxifan.
Similarly, autoradiography using […] sagittal rhesus monkey brain sections was conducted. […]

Regarding `[11CH3]Oc1ccc(N2C(=O)CCc3cc(OC4CCN(C5CCC5)CC4)ccc32)cn1` [[^11C]TASP0410457], the “binding in the monkey cerebellum and brainstem under blockade” value is recorded as “noticeably decreased”.
